Results reported in US20100292288A1, “CRYSTALLINE FORMS OF (R)-1-{2-[4`- (3-METHOXY-PROPANE-1- SULFONYL)-BIPHENYL-4-YL]-ETHYL}-2-METHYL-PYRROLIDINE, AND COMPOSITIONS, AND METHODS RELATED THERETO” (ARENA PHARMACEUTICALS, INC., priority 2007, published 2010).

Experiments:
[1] = Dynamic vapor sorption (DVS) analysis, hygroscopicity; type: physicochemical; settings: crystalline form; VTI-SGA100
Protocol: Dynamic vapor sorption analysis was conducted using a VTI-SGA100. Samples were placed in an open pan inside the instrument and allowed to dry at a relative humidity (RH) of 0%. The sample was considered sufficiently dry when a change in mass over time (dm/dt) was less than 0.04%. The subsequent experiment which, started immediately after drying, was as follows: RH increased in 5% RH steps from 0-95% followed by decreasing RH steps from 95-5%. A change in dm/dt of 0.002% was used to determine when equilibration at any given step was achieved prior to the instrument moving to the next relative humidity step.
Hygroscopicity was measured using a dynamic moisture-sorption analyzer, VTI Corporation, SGA-100. The sample was placed as-is in a tared sample holder on the VTI balance. A drying step was run at 40° C. and 1% RH for 20 minutes. The isotherm conditions are 25° C. with steps of 20% RH from 10% RH up to 90% RH and back to 10% RH. Weight is checked every 5 minutes. Consecutive % weight change of <0.01% or 2 hours, whichever occurs first, is required before continuing to the next step.

histamine H3-receptor = histamine H3-receptor (Rattus norvegicus, UniProt Q9QYN8); assay: [3H] N-alpha-methyl-histamine competitive histamine H3-receptor binding assay; settings: membranes from whole rat brain cortex; [3H]-N-α-methyl-histamine 1 nM; 30 min at room temperature
histamine H3-receptor, sequence (Q9QYN8 1-397 isoform Q9QYN8-3): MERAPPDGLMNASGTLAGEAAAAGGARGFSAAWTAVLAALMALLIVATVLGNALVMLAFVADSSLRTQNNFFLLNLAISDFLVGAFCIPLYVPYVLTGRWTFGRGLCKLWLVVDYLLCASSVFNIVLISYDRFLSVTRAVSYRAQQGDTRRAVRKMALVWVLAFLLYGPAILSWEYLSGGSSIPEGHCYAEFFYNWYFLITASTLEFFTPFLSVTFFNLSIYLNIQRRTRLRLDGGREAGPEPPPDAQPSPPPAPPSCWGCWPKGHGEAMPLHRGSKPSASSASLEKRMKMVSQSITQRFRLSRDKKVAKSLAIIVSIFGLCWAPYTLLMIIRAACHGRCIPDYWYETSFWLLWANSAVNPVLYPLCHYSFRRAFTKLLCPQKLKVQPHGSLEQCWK
Protocol: The histamine receptor binding assay was conducted using standard laboratory procedures as described below. A crude membrane fraction was prepared from whole rat brain cortex using a polytron to homogenize the tissue followed by differential centrifugation in a HEPES-based buffer containing protease inhibitors. Membranes where frozen at −80° C. until needed. Frozen membranes were thawed and resuspended in ice-cold assay buffer consisting of 50 mM TRIS containing 5 mM EDTA (pH=7.4). 50 micrograms (μg) of membrane protein was added to each well of a 96-well assay plate along with test compound and [^3H]-N-α-methyl-histamine (1 nanomolar (nM) final assay concentration). Imetit was used as an assay positive control at varying concentrations. The plate was incubated for 30 min at room temperature. The assay was terminated by rapid filtration through a 96-well glass fiber filtration plate (GF/C) using a cell harvester (Perkin-Elmer). Captured membranes were washed three times with cold assay buffer and plates were dried at 50° C. 35 microliters (μL) of scintillation cocktail was added to each well and membrane-bound radioactivity was recorded using a TopCount 96-well plate scintillation counter (Perkin-Elmer).

RAMH-induced drinking = assay: Blockade of RAMH-induced drinking assay; type: in vivo, rat; settings: male Sprague Dawley rats; 0.3 mg/kg PO; RAMH 3 mg/kg SC 30 min later; water intake over 20 min
Protocol: When administered to rodents, H3 agonists such as R-α-methyl-histamine (RAMH) induce a drinking response which is sensitive to reversal with an H3 antagonist. Blockade of RAMH-induced drinking can therefore be utilised as an in vivo assay for functional H3 antagonist activity. In this assay, male Sprague Dawley rats (250-350 g) were housed three per cage and maintained under a reverse 12 h light cycle (lights off at 1130 h). At 1030 h on the day of test, rats were individually housed in new cages and food was removed. 120 min later, rats were administered test article (vehicle or H3 antagonist, 0.3 mg/kg PO). 30 min later, water was removed, and RAMH (vehicle or RAMH 3 mg/kg salt SC) was administered. 10 min after administration of RAMH, weighed water bottles were placed in the cages, and drinking was allowed for 20 min. Water consumption was determined for each animal by weighing each bottle to the nearest 0.1 g. Data is expressed as percentage reduction in water intake according to the following formula: [1−[(ANTAGONIST/RAMH)−(VEHICLE/RAMH)/(VEHICLE/RAMH)−(VEHICLE/VEHICLE)]]*100

[2] = molecular target: T1, human histamine H3-receptor (Homo sapiens, UniProt Q9Y5N1); assay: Human histamine H3-receptor binding assay, MDS Pharma Services (Taiwan); settings: Catalogue No. 239810
T1 construct: purchased MDS Pharma Services (Taiwan) 239810
T1 sequence (Q9Y5N1 whole entry): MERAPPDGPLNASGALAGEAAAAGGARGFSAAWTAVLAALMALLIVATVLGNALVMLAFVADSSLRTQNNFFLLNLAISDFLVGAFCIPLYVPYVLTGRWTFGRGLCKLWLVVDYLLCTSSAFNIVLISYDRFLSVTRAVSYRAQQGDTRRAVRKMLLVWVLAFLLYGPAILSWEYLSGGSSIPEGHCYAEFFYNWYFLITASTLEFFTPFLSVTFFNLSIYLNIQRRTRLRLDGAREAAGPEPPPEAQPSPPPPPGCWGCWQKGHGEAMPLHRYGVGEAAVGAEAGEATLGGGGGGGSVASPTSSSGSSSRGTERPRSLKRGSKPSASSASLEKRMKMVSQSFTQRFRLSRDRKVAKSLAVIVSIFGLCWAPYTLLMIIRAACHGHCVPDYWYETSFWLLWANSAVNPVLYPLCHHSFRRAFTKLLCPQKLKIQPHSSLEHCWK
Protocol: Compounds were tested for their ability to bind to the human histamine H3-receptor using the MDS Pharma Services (Taiwan) assay, Catalogue No. 239810.

Compound | hygroscopicity from DVS data [1] | Ki (histamine H3-receptor) | % inhibition of RAMH-induced drinking (RAMH-induced drinking) | Ki [2]
COCCCS(=O)(=O)c1ccc(-c2ccc(CCN3CCC[C@H]3C)cc2)cc1.O=C(O)/C=C\C(=O)O [(R)-1-{2-[4′-(3-methoxy-propane-1-sulfonyl)-biphenyl-4-yl]-ethyl}-2-methyl-pyrrolidine maleate] | non-hygroscopic | – | – | –
COCCCS(=O)(=O)c1ccc(-c2ccc(CCN3CCC[C@H]3C)cc2)cc1.O=C(O)CC(O)(CC(=O)O)C(=O)O.O=C(O)CC(O)(CC(=O)O)C(=O)O [Cmpd (I) di-citrate, (R)-1-{2-[4′-(3-methoxy-propane-1-sulfonyl)-biphenyl-4-yl]-ethyl}-2-methyl-pyrrolidine di-citrate] | non-hygroscopic | 0.75 nM | 104 ± 14% | –
COCCCS(=O)(=O)c1ccc(-c2ccc(CCN3CCC[C@H]3C)cc2)cc1 [Cmpd (I), (R)-1-{2-[4′-(3-methoxy-propane-1-sulfonyl)-biphenyl-4-yl]-ethyl}-2-methyl-pyrrolidine] | – | – | – | 5.37 nM
